Source: article PMC3388044, “Probing of Exosites Leads to Novel Inhibitor Scaffolds of HCV NS3/4A Proteinase” (PLoS ONE, 2012)

Columns and labels:
[1] = tested on: sub-genomic HCV RNA replicon; experiment: HCV replicon inhibition assay, luciferase reporter in Huh7 ET cells; type: cell-based; settings: 72 h; for IC50: concentration reducing viral replication by 50%; for IC90: concentration reducing viral replication by 90%
Protocol: To support our in vitro data, the inhibition of HCV RNA replication was then measured using human hepatocarcinoma Huh7 ET cells. These cells express a sub-genomic HCV RNA replicon with a stable luciferase reporter. The replicon contains the 5′-end Internal Ribosome Entry Site (IRES) of HCV which drives the production of a firefly luciferase, ubiquitin, and neomycin phosphotransferase (Neo) fusion protein. Ubiquitin cleavage releases the luciferase and Neo proteins. The IRES element encephalomyocarditis virus controls the translation of the HCV […] proteins NS3-NS5 in the replicon. The NS3 protein cleaves the synthesized HCV polyprotein to release the mature NS3, NS4A, NS4B, NS5A and NS5B proteins that are required for HCV replication. The authentic 3′-end non-translating region of HCV is localized at the 3′-end of the replicon. As a result, the activity of the luciferase reporter is directly proportional to HCV RNA levels and positive control antiviral compounds behave comparably using either luciferase or RNA endpoints.
Human interferon α2b was used as a control.

NS3/4A D168A [2] = target: T1, NS3/4A D168A (Hepatitis C virus genotype 1b, UniProt O92972, D1194A); type: biochemical, HCV genotype 1b, strain HC-J4; settings: recombinant D168A mutant, FRET peptide substrate
T1 construct: The NS3/4A construct represented the individual NS3 proteinase domain N-terminally fused with an NS4A co-factor; 6xHis; purchased AnaSpec (Fremont, CA)
Text: (§1) Reagents were purchased from Sigma unless indicated otherwise. The FRET substrate Ac-DE-D(Edans)-EE-Abu-ψ-[COO]-AS-K(Dabsyl)-NH2, purified recombinant wild-type NS3/4A from HCV genotype 1b, strain HC-J4, and the mutants with the V36M, R155K, A156T, D168A and V170A resistance mutations were from AnaSpec (Fremont, CA). The NS3/4A construct represented the individual NS3 proteinase domain N-terminally fused with an NS4A co-factor and tagged with a 6xHis tag. […] Pyroglutamic acid-Arg-Thr-Lys-Arg-7-amino-4-methylcoumarin was from Peptides International (Louisville, KY). West Nile virus NS2B-NS3 proteinase (strain NY99) was expressed, purified and refolded to restore its functional activity as described earlier. The pET15b-Den2-CF40-Gly-NS3pro 185 plasmid encoding the Dengue virus type 2 NS2B-NS3 protease was a kind gift of Dr. Subhash Vasudevan (Program in Emerging Infectious Diseases, DUKE-NUS Graduate Medical School, Singapore). DV NS2B-NS3 proteinase was expressed purified and refolded to restore its functional activity as described previously, [70]. The expression of the soluble C-terminally truncated human furin construct in Sf9 insect cells (an ovarian cell line from fall armyworm Spodoptera frugiperda; Invitrogen, Carlsbad, CA) infected with the recombinant baculovirus and purification of soluble furin from the medium were described earlier. Original human hepatocarcinoma Huh7 cells were obtained from ATCC (Manassas, VA).
(§2) The NS3/4A activity assay was performed at 37°C in triplicate in wells of a 96-well plate in 0.2 ml 50 mM HEPES, pH 7.5, containing 100 mM NaCl, 10 mM DTT, 20% glycerol, the Ac-DE-D(Edans)-EE-Abu-ψ-[COO]-AS-K(Dabsyl)-NH2 substrate (10 µM) and the NS3/4A enzyme (10 nM). Reaction velocity was monitored continuously at λex = 355 nm and λem = 500 nm for 10 min using a Spectramax Gemini EM fluorescence spectrophotometer (Molecular Devices, Sunnyvale, CA) and the initial rate of reaction v was recorded for each reaction. […] Compound stock solutions (10 mM) were made in 100% DMSO. Stocks were then diluted using the assay buffer. As a result, the final DMSO concentration was always below 1% in the assay reactions.
(§3) To measure the inhibitory potency of the compounds, their increasing concentrations were pre-incubated with the individual proteinases in the corresponding buffer for 30 min at ambient temperature. At least, 7–9 different concentrations were used for each inhibitor. The residual activity of the enzymes was then measured as above. The IC50 values of the inhibitory compounds were calculated by determining the concentrations of the compounds needed to inhibit 50% of the enzyme activity against the peptide substrate. GraphPad Prism was used as fitting software.

NS3/4A A156T [3] = type: biochemical, HCV genotype 1b, strain HC-J4; settings: fold change in IC50 for the mutant compared to WT
Text: as §1, §2, §3

NS3/4A A156T [4] = target: T2, NS3/4A A156T (Hepatitis C virus genotype 1b, UniProt O92972, A1182T); type: biochemical, HCV genotype 1b, strain HC-J4; settings: for IC50: recombinant A156T mutant, FRET peptide substrate; for effect of A156T resistance mutation on efficacy: in contrast with boceprevir and telaprevir
T2 construct: The NS3/4A construct represented the individual NS3 proteinase domain N-terminally fused with an NS4A co-factor; 6xHis; purchased AnaSpec (Fremont, CA)
Text: as §1, §2, §3

NS3/4A D168A [5] = type: biochemical, HCV genotype 1b, strain HC-J4; settings: fold change in IC50 for the mutant compared to WT
Text: as §1, §2, §3

NS3/4A V36M [6] = target: T3, NS3/4A V36M (Hepatitis C virus genotype 1b, UniProt O92972, V1062M); type: biochemical, HCV genotype 1b, strain HC-J4; settings: recombinant V36M mutant, FRET peptide substrate
T3 construct: The NS3/4A construct represented the individual NS3 proteinase domain N-terminally fused with an NS4A co-factor; 6xHis; purchased AnaSpec (Fremont, CA)
Text: as §1, §2, §3

NS3/4A R155K [7] = target: T4, NS3/4A R155K (Hepatitis C virus genotype 1b, UniProt O92972, R1181K); type: biochemical, HCV genotype 1b, strain HC-J4; settings: recombinant R155K mutant, FRET peptide substrate
T4 construct: The NS3/4A construct represented the individual NS3 proteinase domain N-terminally fused with an NS4A co-factor; 6xHis; purchased AnaSpec (Fremont, CA)
Text: as §1, §2, §3

NS3/4A V36M [8] = type: biochemical, HCV genotype 1b, strain HC-J4; settings: fold change in IC50 for the mutant compared to WT
Text: as §1, §2, §3

NS3/4A R155K [9] = type: biochemical, HCV genotype 1b, strain HC-J4; settings: fold change in IC50 for the mutant compared to WT
Text: as §1, §2, §3

SMILES	IC50 [1]	IC90 [1]	IC50 (NS3/4A D168A [2])	NS3/4A A156T FC (NS3/4A A156T [3])	IC50 (NS3/4A A156T [4])	NS3/4A D168A FC (NS3/4A D168A [5])	IC50 (NS3/4A V36M [6])	IC50 (NS3/4A R155K [7])	NS3/4A V36M FC (NS3/4A V36M [8])	NS3/4A R155K FC (NS3/4A R155K [9])	effect of A156T resistance mutation on efficacy (NS3/4A A156T [4])
Clc1ccc(Nc2nc(SCc3ccccc3)nc3n[nH]c(Cc4nc5ccccc5s4)c23)cc1 [Compound 5]	> 100 µM	> 100 µM	12.7 µM	48.95	18.6 µM	33.4	1.07 µM	9.64 µM	2.8	25.4	
COc1cc(C2C(C(=O)Nc3ccc(Cl)c(Cl)c3)=C(C)NC(C)=C2C(=O)Nc2ccc(Cl)c(Cl)c2)ccc1O [Compound 8]	13.6 µM	19.2 µM	3.02 µM	9.2	17.7 µM	1.6	1.84 µM	10.9 µM	0.96	5.7	
Clc1ccc(OCc2nn3c(CCc4nnc5sc(COc6ccc(Cl)cc6)nn45)nnc3s2)cc1 [Compound 2]	10 µM	25.2 µM	4.45 µM	57.57	17.3 µM	14.8	1.53 µM	5.84 µM	5.1	19.5	
Oc1ccccc1-c1nnc2sc3c(Cl)c4nn5c(-c6ccccc6O)nnc5sc4c(Cl)c3nn12 [Compound 4]	28 µM	99.4 µM	3.35 µM	18.17	6.54 µM	9.3	0.34 µM	3.73 µM	0.9	10.4	
S=c1[nH]nc(Nc2nc(SCc3ccccc3)nc3n[nH]c(Cc4nn[nH]n4)c23)s1 [Compound 6]	> 100 µM	> 100 µM	1.21 µM	3.24	3.08 µM	1.3	0.99 µM	2.29 µM	1.04	2.4	not affected
O=C(Nc1ccccc1)c1cc(S(=O)(=O)Nc2nc3ncccc3[nH]2)c(SSc2cc(Cl)c(C(=O)Nc3ccccc3)cc2S(=O)(=O)Nc2nc3ncccc3[nH]2)cc1Cl [Compound 1]	> 100 µM	> 100 µM	0.25 µM	3.93	0.72 µM	1.4	0.26 µM	1.75 µM	1.4	9.6	
Cc1n[nH]c(=S)n1Nc1nc(SCc2ccccc2)nc2n[nH]c(Cc3nn[nH]n3)c12 [Compound 3]	> 100 µM	> 100 µM	8.4 µM	45.14	16.2 µM	23.3	1.67 µM	5.53 µM	4.6	15.4	
S=c1[nH]n2c(COc3cc(Cl)c(OCc4nnc5sc(=S)[nH]n45)cc3Cl)nnc2s1 [Compound 7]	9.95 µM	54.4 µM	1.28 µM	0.9	1.12 µM	1	1.4 µM	2.03 µM	1.1	1.6	not affected
